Test results reported in ChEMBL document CHEMBL1201862, “PubChem BioAssay data set” (2004).
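Compound exposure: 48 hours, 5 concentrations, 96-well plates. The concentration for 50% growth inhibition is given as GI50.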 Activity calls are given as the source filed them. Rule as the data show it: active = GI50 up to about 1.1 µM and inactive = higher.

What was measured:
Assay in all cases: growth of human tumour cells (NCI), 48 h
Hs-578T = test system: Hs-578T
A549 = test system: A549
PC-3 = test system: PC-3
SR = test system: SR
COLO 205 = test system: COLO 205
HCT-116 = test system: HCT-116
TK-10 = test system: TK-10
MDA-N = test system: MDA-N
IGROV-1 = test system: IGROV-1
786-0 = test system: 786-0
RXF 393 = test system: RXF 393
OVCAR-4 = test system: OVCAR-4
KM12 = test system: KM12
HL-60 = test system: HL-60
UO-31 = test system: UO-31
SK-OV-3 = test system: SK-OV-3
MOLT-4 = test system: MOLT-4
SF-268 = test system: SF-268
OVCAR-8 = test system: OVCAR-8
SK-MEL-2 = test system: SK-MEL-2

Measured: GI50

OC1(C2(c3ccc(Cl)cc3)CCCC2)c2ccccc2C2=NCCN21 (stereo unspecified)
inactive: Hs-578T 36.3 µM | A549 15.8 µM | PC-3 11.9 µM | SR 18.1 µM | COLO 205 10.3 µM | HCT-116 11.7 µM | TK-10 15.1 µM | MDA-N 16.1 µM | IGROV-1 12.9 µM | 786-0 14.3 µM | RXF 393 1.68 µM | OVCAR-4 12.9 µM | KM12 18.1 µM | HL-60 14.4 µM | UO-31 11.7 µM | SK-OV-3 18.8 µM | MOLT-4 13.3 µM | SF-268 17.5 µM | OVCAR-8 17.3 µM

S=c1c2cn[nH]c2nc2scc(-c3ccc(Cl)cc3)n12
inactive: Hs-578T 8.73 µM | A549 13 µM | PC-3 12.9 µM | SR 12.1 µM | COLO 205 23.5 µM | HCT-116 14.2 µM | TK-10 10.6 µM | MDA-N 4.36 µM | IGROV-1 > 10 µM | 786-0 14.1 µM | RXF 393 4.04 µM | OVCAR-4 43.1 µM | KM12 11.1 µM | UO-31 6.24 µM | SK-OV-3 18.1 µM | SK-MEL-2 18.2 µM | MOLT-4 15.6 µM | SF-268 16.6 µM | OVCAR-8 16 µM

COC(=O)C(CNC(=O)/C=C/c1ccc(OC)c(OC)c1)NC(=O)/C=C/c1ccc(OC)c(OC)c1 (stereo unspecified)
inactive: Hs-578T > 100 µM | A549 > 100 µM | PC-3 > 100 µM | SR > 100 µM | COLO 205 > 100 µM | HCT-116 > 100 µM | TK-10 > 100 µM | MDA-N > 100 µM | IGROV-1 > 100 µM | 786-0 > 100 µM | RXF 393 > 100 µM | OVCAR-4 > 100 µM | KM12 > 100 µM | UO-31 > 100 µM | SK-OV-3 > 100 µM | SK-MEL-2 > 100 µM | MOLT-4 77.1 µM | SF-268 > 100 µM | OVCAR-8 > 100 µM

CCN(CC)CCC(=O)c1ccc(C)cc1
inactive: Hs-578T 61.5 µM | A549 > 100 µM | PC-3 54.7 µM | SR 28 µM | COLO 205 16.9 µM | HCT-116 16.3 µM | TK-10 > 10 µM | MDA-N 20.7 µM | IGROV-1 17.7 µM | 786-0 17.7 µM | RXF 393 17 µM | OVCAR-4 23.5 µM | KM12 > 10 µM | HL-60 24.5 µM | UO-31 23 µM | SK-OV-3 > 100 µM | MOLT-4 18.5 µM | SF-268 > 100 µM | OVCAR-8 33.4 µM
